# pIC50: −log10 of the molar value.
# Legend:
# A375 cells [1] = test: Western blot analysis of A375 cells; format: cell-based, human; conditions: data not shown
# Excerpt: Culture reagents and DAPI were purchased from Thermo Fischer Scientific. Vemurafenib (PLX4032) and Trametinib (GSK1120212) were from Selleckchem. Chemicals, cycloheximide (CHX), 8TQ and puromycin were from Merck Millipore. The antibodies used for western blotting were as follow: PSMD14 (Generon), HSP90, p53 (Santa Cruz Biotechnology), K48-linkage specific polyubiquitin (D9D5), p21, CDK2, PARP, cleaved caspase 3, phospho-Thr202/Tyr204 Erk1/2 (Cell Signaling Technology), phospho-Ser139 H2AX (BioLegend). Alexa Fluor TexasRed-conjugated secondary antibodies were from ThermoFisher Scientific.
# A375 cells [2] = test: Survival analysis (crystal violet staining) of A375 cells treated with 8TQ; format: cell-based; conditions: Homo sapiens, A-375, increasing doses of 8TQ, 72h, read-out: calculated IC50 for 8TQ
# Method: (§1) FIG. 3. Pharmacological inhibition of PSMD14 impairs melanoma cell survival. A) Survival analysis performed on A375 cells treated with vehicle or increasing doses of 8TQ (0.27, 0.9, 3 μM). After 72h, cells were stained with crystal violet. Right, cell viability was quantified on lysates by analyzing crystal violet staining at 595 nm. Histograms represent the mean±SD of three independent experiments in duplicate (***P<0.001; ns, non significant). B) Effect of PSMD14 inhibition on melanoma cell viability. A375 cells were treated with vehicle or increasing doses of 8TQ (0.27, 0.9, 3 μM). After 72h, cells were stained with Annexin V-FITC and DAPI and analysed by flow cytometry. Histograms show the percentage of cell death (Annexin V and DAPI positive cells) (mean±SEM, n=3). The calculated mean IC50±sem is shown. (** P<0.005, ***P<0.001). C) A subset of melanoma cells was treated with increasing doses of 8TQ. After 72h, cells were labeled and analyzed as in b). The corresponding IC50 of 8TQ was determined by measuring cell viability. Box plots indicating the upper/lower quartile and the median with whiskers from min to max values from 2 experiments performed in triplicate.
# After treatment, cells were fixed in PFA 3% during 20 min, washed with PBS and stained with crystal violet 0.4% in ethanol 20% for 30 min. After washing, crystal violet was solubilized from fixed cells. […]
# [3] = test system: A375RIV, M229R, M238R, M249R and A375DDR melanoma cells; test: Viability of BRAFi- and BRAFi/MEKi-resistant melanoma cells treated with 8TQ; format: cell-based, human
# Method: (§2) FIG. 5. Targeting PSMD14 overcomes resistance to MAPK pathway inhibition. A) Melanoma cell lines resistant to BRAFi (A375RIV, M229R, M238R and M249R) or double resistant to BRAFi and MEKi (A375DDR) were transfected with siCTRL or siPSMD14 #1. After 72h, cell colonies were stained with crystal violet and the absorbance at 595 nm was measured. Box plots show the upper/lower quartile and the median with whiskers from min to max values (n=3, ***P<0.001). B) The above panel of melanoma cells was treated with increasing doses of 8TQ. After 72h, cells were labeled and analyzed. The corresponding IC50 of 8TQ was determined. Box plots indicate the upper/lower quartile and the median with whiskers from min to max values from 2 experiments performed in triplicate. C) 1×10^6 A375Riv human melanoma cells were implanted into both flanks of nude mice. After 2 days, mice were injected i.p every day with 8TQ (10 mg/kg) or vehicle. The tumor size was measured with a caliper and the tumor volume was determined. Data shown are mean±SD of tumor volume (n=12; ***, ***P<0.001, 2way ANOVA).
# (§3) After 24 to 48h of treatment, cell viability was evaluated by flow cytometry following staining with Annexin-V-FITC and propidium iodide (PI) (ThermoFisher Scientific) as previously described (27). The percentage of dead cells (Annexin-V-FITC+ and PI+ cells) was then determined. […]
# [4] = test system: 501Mel and A375 melanoma cells; test: Phosphorylated H2AX after 8TQ; format: cell-based, human; conditions: increased doses of 8TQ, 48h, data not shown
# Method: For phospho-H2AX (pH2AX) foci staining, cells grown on coverslips or culture dishes were fixed with 4% paraformaldehyde and permeabilized in 50 mM Tris-HCl, pH 7.4, 150 mM NaCl, 0.3% Triton X-100 for 1 h at 4° C. Cells were then blocked in 50 mM Tris-HCl, pH 7.4, 150 mM NaCl, 0.03% Triton X-100, 1% BSA for 1 h at 37° C., and stained with anti-phospho-Ser139 H2AX (1:1000, Merck Millipore #05-636) at 4° C. overnight. After extensive washings, cells were stained with Alexa Fluor TexasRed-conjugated secondary antibodies and 10 μg/ml DAPI for 1 h at room temperature. After washing, cells were mounted with ProLong Gold Antifade Mounting Oil (Thermo Fischer Scientific). The percentage of cells positive for phospho-H2AX foci was determined by analyzing 200 randomly chosen cells and the foci-positive cells were defined as nuclei with at least one large focus or a granular pattern of fluorescence.
# [5] = test system: Yumm1.7 murine melanoma cells (BrafV600E/Pten null/cdkn2a null); test: Yumm1.7 syngeneic melanoma model; format: in vivo, C57Bl/6J mice
# Method: (§4) FIG. 4. The PSMD14 inhibitor 8TQ inhibits tumor growth in melanoma syngeneic models. A) 2×10^5 murine melanoma cells Yumm1.7 (derived from BrafV600E/Pten null/cdkn2a null mice) were subcutaneously inoculated into both flanks of 6-week old C57Bl/6J female mice. After one week, mice were injected i.p 3 times per week with 8TQ (10 mg/kg) or vehicle. The tumor size was measured with a caliper and the tumor volume was determined. Data shown are mean±SD of tumor volume (n=12; ***, ***P<0.001, 2way ANOVA). B) 4×105 murine melanoma MaNRas (NRasQ61K) were subcutaneously injected into both flanks of 6-week old C57Bl/6J female mice. After two weeks, mice were injected i.p every two days with 8TQ (10 mg/kg) or vehicle. The tumor size was measured with a caliper and the tumor volume was determined. Data shown are mean±sd of tumor volume (n=12; ***, ***P<0.001, 2way ANOVA).
# Slices (4 μm) from paraffin-embedded tumors sections were Tissue sections were processed for dewaxing, rehydration and antigenic heat unmasking using the PT Module Lab Vision™ (ThermoFisher Scientific) according to the manufacturer's instructions. Tissue sections were then labelled with primary antibodies diluted in 1% BSA (wt/vol) followed by standard avidin-biotin-peroxidase staining (Vector Laboratories) using the automated staining system Myreva SS30 (Microm Microtech, France). Primary antibodies were as follows: phospho-H2AX (Merck Millipore), Ki67 (Agilent Dako), cleaved caspase 3 (Cell Signaling Technology).
# All mouse experiments were carried out in accordance with the Institutional Animal Care and the local ethics committee (CIEPAL-Azur agreement NCE/2018-509). The animals were maintained on a 12h light/dark cycle in a temperature-controlled facility at 22° C. and were provided with free access to food (standard laboratory chow diet from UAR). For melanoma xenografts, 2×106 BRAF inhibitor resistant A375Riv human melanoma cells were subcutaneously implanted into both flanks of 6 week old athymic nude nu/nu female mice (Envigo). For melanoma syngeneic models, 2 to 4 105 of Yumm1.7 or MaNras murine melanoma cells were subcutaneously inoculated into 6 week old C57Bl/6J female mice (Envigo). When tumors became palpable (0.05 to 0.1 cm3), mice were injected intraperitoneally once every other day with vehicle or 10 mgkg-1 8TQ in a 90:9:1 (v/v/v) mixture of Labrafil, dimethylacetamide, and Tween 80. The tumor size was measured with a caliper and the tumor volume was determined using the formula: Volume=(length×Width2)/2. At the end of the experiment, mice were sacrificed and tumors dissected, weighed, fixed and embedded in paraffin for IHC analysis.
# [6] = test system: A375Riv human melanoma cells; test: BRAFi-resistant A375Riv xenografts; format: in vivo; conditions: A375Riv xenografts in nude mice, 8TQ 10 mg/kg i.p. vs vehicle
# Method: as §2
# All mouse experiments were carried out in accordance with the Institutional Animal Care and the local ethics committee (CIEPAL-Azur agreement NCE/2018-509). […] The tumor size was measured with a caliper and the tumor volume was determined using the formula: Volume=(length×Width2)/2. […]
# [7] = test system: human (M099, M029, Sbcl2, 501Mel, WM9 and MEWO) and murine (Yumm1.7 and MaNras) melanoma cell lines; test: IC50 of 8TQ on a collection of melanoma cell lines and short-term cultures; format: cell-based
# Method: as §1, with “Box plots indicating the upper/lower quartile and the median with whiskers from min to max values from 2 experiments performed in triplicate.” left out
# as §3
# A375 cells [8] = test: Cell death by Annexin V-FITC/DAPI flow cytometry; format: cell-based, human; conditions: 8TQ 0.27, 0.9, 3 μM, 72h
# Method: FIG. 2. PSMD14 depletion has a potent cytotoxic effect on melanoma cells. A) Experimental validation of the siDUB screening on melanoma cell proliferation. 501Mel and A375 melanoma cells were plated 10,000 cells/well in a 24-well plate and transfected with a control siRNA (siCTRL) or 3 different siRNA sequences targeting PSMD14 (siPSMD14 #1, #2 and #3). Cell confluence was imaged for 48 h using the IncuCyte Zoom live imaging system. Curves represent normalized cell proliferation of each siRNA relative to siCTRL. Data are the mean±SEM (n=3). ***P<0.001, 2-way ANOVA analysis. B) Colony survival analysis after PSMD14 depletion (siPSMD14 #1, #2 and #3) compared to control siRNA (siCTRL). 501Mel and A375 cells were transfected with siRNAs, re-seeded at 2,000 cells/well and grown for 1 week. Colonies were stained with crystal violet. […] Box plots show the mean±SEM of crystal violet quantification relative to siCTRL (n=3, ***P<0.001.). […] After 72h, cells were labeled with Annexin V-FITC and DAPI and analysed by flow cytometry. […]
# FIG. 3. […] Right, cell viability was quantified on lysates by analyzing crystal violet staining at 595 nm. […] After 72h, cells were stained with Annexin V-FITC and DAPI and analysed by flow cytometry. […] The calculated mean IC50±sem is shown. […] After 72h, cells were labeled and analyzed as in b). The corresponding IC50 of 8TQ was determined by measuring cell viability. […]
# [9] = test system: MaNRas murine melanoma cells (NRasQ61K); test: MaNRas syngeneic melanoma model; format: in vivo; conditions: 8TQ 10 mg/kg i.p. vs vehicle, C57Bl/6J mice
# Method: as §4
# All mouse experiments were carried out in accordance with the Institutional Animal Care and the local ethics committee (CIEPAL-Azur agreement NCE/2018-509). The animals were maintained on a 12h light/dark cycle in a temperature-controlled facility at 22° C. and were provided with free access to food (standard laboratory chow diet from UAR). […] The tumor size was measured with a caliper and the tumor volume was determined using the formula: Volume=(length×Width2)/2. […]
# [10] = Yumm1.7 tumors, vs vehicle, data not shown
# [11] = immunostaining on tumor sections, data not shown
structure (smiles),measurement,setting,value
"Sc1cccc2cccnc12 [8TQ, quinoline-8-thiol]",accumulation of poly-ubiquitinated proteins,A375 cells [1],induced the accumulation
same,expression of cleaved PARP,A375 cells [1],induced
same,expression of cleaved caspase-3,A375 cells [1],induced
same,pIC50,A375 cells [2],6.18
same,viability of BRAFi- and BRAFi/MEKi-resistant cells,"[3]; doses of 8TQ, 72h",potently decreased
same,IC50 of 8TQ,[3]; resistant cells compared with parental counterparts,in the same μM range
same,expression of phosphorylated H2AX,[4],elevated expression
same,Yumm1.7 tumor growth,"[5]; 8TQ 10 mg/kg i.p. vs vehicle, C57Bl/6J mice",significantly decreased
same,tumor size at the experiment endpoint,[5]; [10],markedly reduced
same,tumor weight at the experiment endpoint,[5]; [10],markedly reduced
same,staining of the apoptosis marker cleaved caspase 3,[5]; [11],increased staining
same,staining of the cell proliferation marker Ki67,[5]; [11],decreased staining
same,tumor development,[6],dramatically abrogated
same,pIC50,"[7]; collection of human and murine melanoma cell lines and short-term cultures, 72h",6.12 to 6.60
same,melanoma cell viability,[7]; irrespective of the mutational status or the disease stage,markedly inhibited
same,apoptotic cell death (Annexin V-FITC/DAPI staining),A375 cells [8],dose-dependent increase
same,MaNRAS tumor growth,[9],significantly decreased

# From US20230076415A1, “METHODS AND COMPOSITIONS FOR TREATING MELANOMA” (INSERM (INSTITUT NATIONAL DE LA SANTÉ ET DE LA RECHERCHE …, priority 2020, published 2023)
